Laboratory results taken from the NIST ThermoML archive (doi:10.1016/j.tca.2016.03.033).
± gives the expanded uncertainty stated by the source.

Columns and labels:
[1] = Ring tensiometer
[2] = xn = mol fraction of the nth substance listed; settings: Ring tensiometer

[Cl-].[K+] [potassium chloride]
Settings | surface tension liquid-gas [mN/m]
[1], 1230 K | 86.14 ± 1.5

[F][La]([F])[F] [lanthanum trifluoride] + [F-].[Li+]
surface tension liquid-gas [mN/m], [2]
Settings | 1223 K | 1248 K | 1273 K | 1298 K | 1323 K | 1348 K | 1373 K | 1398 K | 1423 K
x1 = 0.2 | 257.3 ± 4.2 | 254.9 ± 4.1 | 251.8 ± 4.1 | 249.3 ± 4 | 247 ± 4 | 244.4 ± 4 | 242.1 ± 3.9 | 239.2 ± 3.9 | 236.9 ± 3.9
x1 = 0.25 | 264.7 ± 4.3 | 262.1 ± 4.2 | 259 ± 4.2 | 256.3 ± 4.2 | 253.6 ± 4.1 | 251.2 ± 4.1 | 248.8 ± 4 | 246.7 ± 4 | 243.9 ± 4
x1 = 0.3 | 272.2 ± 4.4 | 269.5 ± 4.4 | 267.2 ± 4.3 | 264.9 ± 4.3 | 262.1 ± 4.3 | 258.9 ± 4.2 | 256.5 ± 4.2 | 253.8 ± 4.1 | 251.3 ± 4.1
x1 = 0.35 | – | – | – | 274.2 ± 4.4 | 271.4 ± 4.4 | 268.3 ± 4.4 | 265 ± 4.3 | 262.2 ± 4.3 | 259.8 ± 4.2
x1 = 0.4 | – | – | – | – | 281.7 ± 4.6 | 279.1 ± 4.5 | 276.5 ± 4.5 | 274 ± 4.5 | 270.9 ± 4.4

[F][Nd]([F])[F] [neodymium fluoride] + [F-].[Li+]
surface tension liquid-gas [mN/m], [2]
Settings | 1223 K | 1248 K | 1273 K | 1298 K | 1323 K | 1348 K | 1373 K | 1398 K | 1423 K
x1 = 0.2 | 249.1 ± 4.1 | 247.2 ± 4 | 244.3 ± 4 | 241.9 ± 3.9 | 239.6 ± 3.9 | 237.3 ± 3.9 | 235.2 ± 3.8 | 232.9 ± 3.8 | 230.8 ± 3.8
x1 = 0.25 | 258.3 ± 4.2 | 255.7 ± 4.2 | 253.5 ± 4.1 | 250.9 ± 4.1 | 249.3 ± 4.1 | 246.3 ± 4 | 243.6 ± 4 | 240.4 ± 3.9 | 239.1 ± 3.9
x1 = 0.3 | 267.8 ± 4.4 | 264.9 ± 4.3 | 262.7 ± 4.3 | 259.5 ± 4.2 | 257 ± 4.2 | 254.5 ± 4.1 | 251.6 ± 4.1 | 249.3 ± 4.1 | 246.9 ± 4
x1 = 0.35 | 279.2 ± 4.5 | 276.8 ± 4.5 | 273.3 ± 4.4 | 270.4 ± 4.4 | 268.1 ± 4.4 | 266 ± 4.3 | 262.7 ± 4.3 | 260.4 ± 4.2 | 257.3 ± 4.2
x1 = 0.4 | – | – | 284.1 ± 4.6 | 280.7 ± 4.6 | 279.6 ± 4.5 | 276.8 ± 4.5 | 274.1 ± 4.5 | 272.1 ± 4.4 | 268.2 ± 4.4

[F-].[Na+] [sodium fluoride]
Settings | surface tension liquid-gas [mN/m]
[1], 1325 K | 187.14 ± 3.1
